20 compounds from patent US12012417B2, “N-substituted tetrahydrothienopyridine derivatives and uses thereof” (NOVARTIS AG, priority 2018, dated 2024) can be followed below.

The test system of assay [1] is Dengue 1 virus MY97-10245. Put plainly: High-content imaging cell-based flavivirus immunodetection (HCl-CFI) assay, Dengue 1. The conditions noted are these: Dengue virus, A549, 48 h, read-out: Dengue 1 virus MY97-10245 in A549 using HCl [Inhibitor/IC50] Qualified AC50.
Assay [2] relates to Dengue 3 virus MY05-34640-WT-C6/36. Put plainly: High-content imaging cell-based flavivirus immunodetection (HCl-CFI) assay, Dengue 3. The conditions noted are these: Dengue virus, A549, 48 h, read-out: Dengue 3 virus MY05-34640-WT-C6/36 in A549 using HCl [Inhibitor/IC50] Qualified AC50.
Assay [3] has as its system Dengue 4 virus MY01-22713. Put plainly: High-content imaging cell-based flavivirus immunodetection (HCl-CFI) assay, Dengue 4. The conditions noted are these: Dengue virus, A549, 48 h.
In assay [4] the test system is Dengue 2 virus MY97-10340. Put plainly: High-content imaging cell-based flavivirus immunodetection (HCl-CFI) assay, Dengue 2. The conditions noted are these: Dengue virus, A549, 48 h. The procedure: High-Content Imaging Cell-Based Flavivirus Immunodetection (HCl-CFI) Assay
A549 cells (7×10^3 cells per well) in a 384-well plate were infected with the DENV-2 (MY97-10340) strain at an MOI of 0.3. The cells were then treated with 3-fold, 10-point serial dilutions of test compound. After 48 h, the cells were fixed with paraformadehyde, and the viral E protein detected with 4G2 antibody labeled with Dylight™ 488 (GenScript). Cell nuclei were stained with Draq5 (Pierce/Thermo), and images were taken on the Opera imaging system (Perkin Elmer). A dose-response curve was plotted to calculate the effective concentration of compound needed to reduce expression of E protein by 50% (EC50) using GraphPad Prism.
The resulted EC50 values are summarized in Table 1 below: ±≥1 μM; 1 μM>++≥0.1 μM; 0.1 μm>+++

Where [5] appears, read: read-out: Dengue 4 virus MY01-22713 in A549 using HCl [Inhibitor/IC50] Qualified AC50, A549 cells, 48 h, viral E protein expression.
The mark [6] stands for this setting: read-out: Dengue 2 virus MY97-10340 in A549 using HCl [Inhibitor/IC50] Qualified AC50, A549 cells, MOI 0.3, 48 h, viral E protein expression.

Like-named read-outs stand apart in the source and are kept apart here. Some results are limits rather than exact numbers.

For `CNS(=O)(=O)c1ccccc1CC(=O)Nc1sc2c(c1C#N)CN(Cc1cccc(F)c1)CC2` [Example 28, N-(3-cyano-5-(3-fluorobenzyl)-4,5,6,7-tetrahydrothieno[3,2-c]pyridin-2-yl)-2-(2-(N-methylsulfamoyl)phenyl)acetamide], the EC50 was 100 to 1000 nM in assay [1], < 100 nM in assay [2], < 100 nM in assay [3] (setting [5]) and 100 to 1000 nM in assay [4] (setting [6]).
With `CNS(=O)(=O)c1ccc(CC(=O)Nc2sc3c(c2C#N)CN(Cc2cccc(F)c2)CC3)cc1` [Example 29, N-(3-cyano-5-(3-fluorobenzyl)-4,5,6,7-tetrahydrothieno[3,2-c]pyridin-2-yl)-2-(4-(N-methylsulfamoyl)phenyl)acetamide], the EC50 in assay [1] is 100 to 1000 nM; in assay [2] it was < 100 nM; in assay [3] (setting [5]), < 100 nM; in assay [4] (setting [6]), < 100 nM.
Take `COc1cc(CC(=O)Nc2sc3c(c2C#N)CN(Cc2cccc(F)c2)CC3)ccc1S(C)(=O)=O` [Example 30, N-(3-cyano-5-(3-fluorobenzyl)-4,5,6,7-tetrahydrothieno[3,2-c]pyridin-2-yl)-2-(3-methoxy-4-(methylsulfonyl)phenyl)acetamide]: the EC50 in assay [1] is 100 to 1000 nM; in assay [2], < 100 nM; in assay [3] (setting [5]), < 100 nM; in assay [4] (setting [6]) it was < 100 nM.
Regarding `COCCOc1cccc(CC(=O)Nc2sc3c(c2C#N)CN(Cc2cccc(F)c2)CC3)c1` [Example 31, N-(3-cyano-5-(3-fluorobenzyl)-4,5,6,7-tetrahydrothieno[3,2-c]pyridin-2-yl)-2-(3-(2-methoxyethoxy)phenyl)acetamide], the EC50 is > 1000 nM in assay [1], 100 to 1000 nM in assay [2], 100 to 1000 nM in assay [3] (setting [5]) and 100 to 1000 nM in assay [4] (setting [6]).
Take `CS(=O)(=O)Cc1ccc(CC(=O)Nc2sc3c(c2C#N)CN(Cc2cccc(F)c2)CC3)cc1` [Example 32, N-(3-cyano-5-(3-fluorobenzyl)-4,5,6,7-tetrahydrothieno[3,2-c]pyridin-2-yl)-2-(4-((methylsulfonyl)methyl)phenyl)acetamide]: the EC50 in assay [1] is 100 to 1000 nM; in assay [2], < 100 nM; in assay [3] (setting [5]), < 100 nM; in assay [4] (setting [6]) it was 100 to 1000 nM.
Take `N#Cc1c(NC(=O)Cc2ccc3c(c2)CCS3(=O)=O)sc2c1CN(Cc1cccc(F)c1)CC2` [Example 33, N-(3-cyano-5-(3-fluorobenzyl)-4,5,6,7-tetrahydrothieno[3,2-c]pyridin-2-yl)-2-(1,1-dioxido-2,3-dihydrobenzo[b]thiophen-5-yl)acetamide]: the EC50 in assay [1] was 100 to 1000 nM; in assay [2] it was < 100 nM; in assay [3] (setting [5]) it was < 100 nM; in assay [4] (setting [6]), 100 to 1000 nM.
As to `COc1cccc(CC(=O)Nc2sc3c(c2C#N)CN(Cc2cccc(F)c2)CC3)c1OC` [Example 34, N-(3-cyano-5-(3-fluorobenzyl)-4,5,6,7-tetrahydrothieno[3,2-c]pyridin-2-yl)-2-(2,3-dimethoxyphenyl)acetamide], the EC50 in assay [1] is > 1000 nM; in assay [2], 100 to 1000 nM; in assay [3] (setting [5]), 100 to 1000 nM; in assay [4] (setting [6]), > 1000 nM.
`COc1cc(F)cc(CC(=O)Nc2sc3c(c2C#N)CN(Cc2cccc(F)c2)CC3)c1` [Example 35, N-(3-cyano-5-(3-fluorobenzyl)-4,5,6,7-tetrahydrothieno[3,2-c]pyridin-2-yl)-2-(3-fluoro-5-methoxyphenyl)acetamide]: the EC50 is > 1000 nM in assay [1], 100 to 1000 nM in assay [2], 100 to 1000 nM in assay [3] (setting [5]) and 100 to 1000 nM in assay [4] (setting [6]).
`CS(=O)(=O)n1ccc(CC(=O)Nc2sc3c(c2C#N)CN(Cc2cccc(F)c2)CC3)c1` [Example 36, N-(3-cyano-5-(3-fluorobenzyl)-4,5,6,7-tetrahydrothieno[3,2-c]pyridin-2-yl)-2-(1-(methylsulfonyl)-1H-pyrrol-3-yl)acetamide]: the EC50 in assay [1] was > 1000 nM; in assay [2], 100 to 1000 nM; in assay [3] (setting [5]), 100 to 1000 nM; in assay [4] (setting [6]), 100 to 1000 nM.
Consider `CCOc1cc(CC(=O)Nc2sc3c(c2C#N)CN(Cc2cccc(F)c2)CC3)ccc1S(C)(=O)=O` [Example 37, N-(3-cyano-5-(3-fluorobenzyl)-4,5,6,7-tetrahydrothieno[3,2-c]pyridin-2-yl)-2-(3-ethoxy-4-(methylsulfonyl)phenyl)acetamide], for which the EC50 in assay [1] is 100 to 1000 nM; in assay [2], < 100 nM; in assay [3] (setting [5]), < 100 nM; in assay [4] (setting [6]) it was < 100 nM.
As to `COc1cc(C#N)cc(CC(=O)Nc2sc3c(c2C#N)CN(Cc2cccc(F)c2)CC3)c1` [Example 38, N-(3-cyano-5-(3-fluorobenzyl)-4,5,6,7-tetrahydrothieno[3,2-c]pyridin-2-yl)-2-(3-cyano-5-methoxyphenyl)acetamide], the EC50 in assay [1] is > 1000 nM; in assay [2], 100 to 1000 nM; in assay [3] (setting [5]) it was 100 to 1000 nM; in assay [4] (setting [6]), 100 to 1000 nM.
In the case of `COc1cc(Cl)cc(CC(=O)Nc2sc3c(c2C#N)CN(Cc2cccc(F)c2)CC3)c1` [Example 39, 2 (3 chloro-5-methoxyphenyl)-N-(3-cyano-5-(3-fluorobenzyl)-4,5,6,7-tetrahydrothieno[3,2-c]pyridin-2-yl)acetamide], the EC50 was > 1000 nM in assay [1], 100 to 1000 nM in assay [2], 100 to 1000 nM in assay [3] (setting [5]) and > 1000 nM in assay [4] (setting [6]).
As to `COc1cccc(CC(=O)Nc2sc3c(c2C#N)CN(Cc2cccc(F)c2)CC3)c1F` [Example 40, N-(3-cyano-5-(3-fluorobenzyl)-4,5,6,7-tetrahydrothieno[3,2-c]pyridin-2-yl)-2-(2-fluoro-3-methoxyphenyl)acetamide], the EC50 in assay [1] was > 1000 nM; in assay [2] it was 100 to 1000 nM; in assay [3] (setting [5]), 100 to 1000 nM; in assay [4] (setting [6]), 100 to 1000 nM.
As for `COc1cccc(CC(=O)Nc2sc3c(c2C#N)CN(Cc2cccc(F)c2)CC3)c1Cl` [Example 41, 2-(2-chloro-3-methoxyphenyl)-N-(3-cyano-5-(3-fluorobenzyl)-4,5,6,7-tetrahydrothieno[3,2-c]pyridin-2-yl)acetamide], the EC50 was > 1000 nM in assay [1], 100 to 1000 nM in assay [2], 100 to 1000 nM in assay [3] (setting [5]) and 100 to 1000 nM in assay [4] (setting [6]).
`CC1(C)CS(=O)(=O)c2ccc(CC(=O)Nc3sc4c(c3C#N)CN(Cc3cccc(F)c3)CC4)cc21` [Example 42, N-(3-cyano-5-(3-fluorobenzyl)-4,5,6,7-tetrahydrothieno[3,2-c]pyridin-2-yl)-2-(3,3-dimethyl-1,1-dioxido-2,3-dihydrobenzo[b]thiophen-5-yl)acetamide]: the EC50 in assay [1] was 100 to 1000 nM; in assay [2], < 100 nM; in assay [3] (setting [5]) it was < 100 nM; in assay [4] (setting [6]) it was < 100 nM.
With `N#Cc1c(NC(=O)Cc2ccc(S(N)(=O)=O)c(F)c2)sc2c1CN(Cc1cccc(F)c1)CC2` [Example 43, N-(3-cyano-5-(3-fluorobenzyl)-4,5,6,7-tetrahydrothieno[3,2-c]pyridin-2-yl)-2-(3-fluoro-4-sulfamoylphenyl)acetamide], the EC50 in assay [1] is 100 to 1000 nM; in assay [2] it was < 100 nM; in assay [3] (setting [5]) it was < 100 nM; in assay [4] (setting [6]), < 100 nM.
Take `COP(C)(=O)c1ccc(CC(=O)Nc2sc3c(c2C#N)CN(Cc2cccc(F)c2)CC3)cc1` (centres unmarked) [Example 44, Methyl (4-(2-((3-cyano-5-(3-fluorobenzyl)-4,5,6,7-tetrahydrothieno[3,2-c]pyridin-2-yl)amino)-2-oxoethyl)phenyl)(methyl)phosphinate]: the EC50 is > 1000 nM in assay [1], 100 to 1000 nM in assay [2], 100 to 1000 nM in assay [3] (read-out: Dengue 4 virus MY01-22713 in A549 using HCl [Inhibitor/IC50] Qualified AC50) and 100 to 1000 nM in assay [4] (read-out: Dengue 2 virus MY97-10340 in A549 using HCl [Inhibitor/IC50] Qualified AC50).
Regarding `N#Cc1c(NC(=O)Cc2ccc(S(=O)(=O)C(F)F)cc2)sc2c1CN(Cc1cccc(F)c1)CC2` [Example 45, N-(3-cyano-5-(3-fluorobenzyl)-4,5,6,7-tetrahydrothieno[3,2-c]pyridin-2-yl)-2-(4-((difluoromethyl)sulfonyl)phenyl)acetamide], the EC50 is > 1000 nM in assay [1], 100 to 1000 nM in assay [2], 100 to 1000 nM in assay [3] (setting [5]) and > 1000 nM in assay [4] (setting [6]).
In the case of `CS(=O)(=O)Nc1ccc(CC(=O)Nc2sc3c(c2C#N)CN(Cc2cccc(F)c2)CC3)cc1` [Example 46, N-(3-cyano-5-(3-fluorobenzyl)-4,5,6,7-tetrahydrothieno[3,2-c]pyridin-2-yl)-2-(4-(methylsulfonamido)phenyl)acetamide], the EC50 in assay [1], in assay [2], in assay [3] (setting [5]) and in assay [4] (setting [6]) was 100 to 1000 nM in each case.
Take `CN(C)S(=O)(=O)c1ccc(CC(=O)Nc2sc3c(c2C#N)CN(Cc2cccc(F)c2)CC3)cc1` [Example 47, N-(3-cyano-5-(3-fluorobenzyl)-4,5,6,7-tetrahydrothieno[3,2-c]pyridin-2-yl)-2-(4-(N,N-dimethylsulfamoyl)phenyl)acetamide]: the EC50 is 100 to 1000 nM in assay [1], < 100 nM in assay [2], 100 to 1000 nM in assay [3] (setting [5]) and < 100 nM in assay [4] (setting [6]).
